Laboratory results published in ChEMBL document CHEMBL1201862, “PubChem BioAssay data set” (2004).
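Compound exposure: 48 hours, 5 concentrations, 96-well plates. GI50 is the concentration that inhibits growth by half.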 Calls of active or inactive are those of the source. Rule as the data show it: active = GI50 up to about 1.1 µM and inactive = higher.

Assays:
Assay in all cases: NCI-60 cell line screen, 48 h
786-0 = system: 786-0
ACHN = system: ACHN
CAKI-1 = system: CAKI-1
HCT-116 = system: HCT-116
LOX IMVI = system: LOX IMVI
Malme-3M = system: Malme-3M
NCI-H226 = system: NCI-H226
NCI-H23 = system: NCI-H23
NCI-H460 = system: NCI-H460
OVCAR-3 = system: OVCAR-3
SF-268 = system: SF-268
SK-MEL-5 = system: SK-MEL-5
SN12C = system: SN12C
SR = system: SR
SW-620 = system: SW-620
UACC-62 = system: UACC-62
MDA-MB-231 = system: MDA-MB-231
MDA-MB-435 = system: MDA-MB-435
NCI/ADR-RES = system: NCI/ADR-RES

Measured: GI50

O=C(Nc1ccc(Cl)cc1Cl)C(=O)C(C(=O)c1ccncc1)C1OC(=O)c2ccccc21 (configuration not stated)
inactive: 786-0 > 100 µM | ACHN > 100 µM | CAKI-1 > 100 µM | HCT-116 > 100 µM | LOX IMVI > 100 µM | Malme-3M > 100 µM | NCI-H226 > 100 µM | NCI-H23 > 100 µM | NCI-H460 > 100 µM | OVCAR-3 > 100 µM | SF-268 > 100 µM | SK-MEL-5 > 100 µM | SN12C > 100 µM | SR > 100 µM | SW-620 > 100 µM | UACC-62 > 100 µM

COc1cc2nc(-c3cccs3)nc(N3C(c4cc(OC)c(OC)c(OC)c4)=NNC(=O)c4ccccc43)c2cc1OC
inactive: 786-0 35.6 µM | ACHN 44.1 µM | CAKI-1 52.8 µM | HCT-116 > 100 µM | LOX IMVI 15.8 µM | MDA-MB-231 16.7 µM | MDA-MB-435 13.9 µM | Malme-3M 18.7 µM | NCI-H226 > 100 µM | NCI-H23 14 µM | NCI-H460 4.82 µM | NCI/ADR-RES 3.4 µM | OVCAR-3 6.43 µM | SF-268 12 µM | SK-MEL-5 34.9 µM | SN12C 21.2 µM | SR 6.93 µM | UACC-62 17.4 µM

N=NCC(=O)OC(COCc1ccccc1)COCc1ccccc1
inactive: 786-0 > 100 µM | ACHN 25.9 µM | CAKI-1 37.9 µM | HCT-116 > 100 µM | LOX IMVI 93.5 µM | MDA-MB-231 > 100 µM | MDA-MB-435 > 100 µM | Malme-3M > 100 µM | NCI-H226 > 100 µM | NCI-H23 > 100 µM | NCI-H460 7.1 µM | OVCAR-3 > 100 µM | SF-268 > 100 µM | SK-MEL-5 49.1 µM | SN12C 80.5 µM | SR > 100 µM | SW-620 > 100 µM | UACC-62 > 100 µM

Cc1cc(S(=O)(=O)[N-]/C(=N/S(=O)(=O)c2ccc(Cl)cc2)[n+]2ccc(N(C)C)cc2)c(SCC(=O)O)cc1Cl
inactive: 786-0 > 100 µM | ACHN > 100 µM | CAKI-1 > 100 µM | HCT-116 26.4 µM | LOX IMVI > 100 µM | MDA-MB-231 83.4 µM | MDA-MB-435 > 100 µM | Malme-3M 33.2 µM | NCI-H226 52.7 µM | NCI-H23 > 100 µM | NCI-H460 42.8 µM | OVCAR-3 69.7 µM | SF-268 > 100 µM | SN12C > 100 µM | SR 35 µM | SW-620 64.1 µM | UACC-62 91.4 µM

COc1c(C(C)C)cc2c3c1OC(=O)[C@@]31CCCC(C)(C)C1CC2 (some centres not stated)
inactive: 786-0 46.7 µM | ACHN 52.5 µM | CAKI-1 > 100 µM | HCT-116 9.2 µM | LOX IMVI 12.5 µM | Malme-3M 27.2 µM | NCI-H226 4.92 µM | NCI-H23 20 µM | NCI-H460 40.7 µM | OVCAR-3 20.5 µM | SF-268 28.7 µM | SK-MEL-5 11.2 µM | SN12C 51.9 µM | SR 16.9 µM | SW-620 26.4 µM | UACC-62 24.4 µM

O=S1(=O)NN=C(NCc2ccc(Cl)c(Cl)c2)c2ccccc21
inactive: 786-0 > 100 µM | ACHN > 100 µM | CAKI-1 > 100 µM | HCT-116 > 100 µM | LOX IMVI 40.2 µM | Malme-3M > 100 µM | NCI-H226 > 100 µM | NCI-H460 95.3 µM | OVCAR-3 > 100 µM | SF-268 > 100 µM | SK-MEL-5 86.9 µM | SN12C > 100 µM | SR 15.6 µM | SW-620 91.2 µM | UACC-62 6.56 µM

CC(C)(C)c1cc2ccc(C(N)=O)cc2c(=O)[nH]1
inactive: 786-0 > 100 µM | ACHN > 100 µM | CAKI-1 80.2 µM | HCT-116 69.7 µM | LOX IMVI 62.7 µM | Malme-3M > 100 µM | NCI-H226 56 µM | NCI-H23 > 100 µM | NCI-H460 > 100 µM | OVCAR-3 > 100 µM | SF-268 > 100 µM | SK-MEL-5 > 100 µM | SN12C > 100 µM | SR > 100 µM | SW-620 > 100 µM | UACC-62 > 100 µM

CC1=NN(c2ccccc2)C(=O)C1=C1SCCCS1
inactive: 786-0 35.5 µM | ACHN > 100 µM | CAKI-1 15 µM | HCT-116 13.8 µM | LOX IMVI 23.6 µM | Malme-3M 41.8 µM | NCI-H226 29.3 µM | NCI-H23 29.2 µM | NCI-H460 35.2 µM | OVCAR-3 22.3 µM | SF-268 44 µM | SK-MEL-5 31.2 µM | SN12C 28.2 µM | SR 14.3 µM | SW-620 13.2 µM | UACC-62 17.3 µM

O=c1c2cccc3cccc(c4n1CCN=4)c32
inactive: 786-0 > 100 µM | ACHN 56 µM | CAKI-1 63.4 µM | HCT-116 57.8 µM | LOX IMVI 32 µM | Malme-3M > 100 µM | NCI-H226 56.8 µM | NCI-H23 > 100 µM | NCI-H460 61.1 µM | OVCAR-3 > 100 µM | SF-268 > 100 µM | SK-MEL-5 > 100 µM | SN12C > 100 µM | SR 25.2 µM | SW-620 > 100 µM | UACC-62 84.5 µM

COC(=O)C(C(=O)C(=O)Nc1cccc(OC)c1)c1cnc2ccccc2n1 (configuration not stated)
inactive: 786-0 > 100 µM | ACHN > 100 µM | CAKI-1 > 100 µM | HCT-116 29.3 µM | LOX IMVI > 100 µM | Malme-3M > 100 µM | NCI-H226 > 100 µM | NCI-H23 > 100 µM | NCI-H460 > 100 µM | SF-268 > 100 µM | SK-MEL-5 > 100 µM | SN12C > 100 µM | SR > 100 µM | SW-620 > 100 µM | UACC-62 > 100 µM

CCC12CCCC(=O)N1C(CO)C(c1ccccc1)O2 (configuration not stated)
inactive: 786-0 > 100 µM | ACHN > 100 µM | CAKI-1 > 100 µM | HCT-116 > 100 µM | LOX IMVI > 100 µM | Malme-3M > 100 µM | NCI-H23 > 100 µM | NCI-H460 > 100 µM | OVCAR-3 > 100 µM | SF-268 > 100 µM | SK-MEL-5 > 100 µM | SN12C > 100 µM | SR > 100 µM | SW-620 > 100 µM | UACC-62 > 100 µM

COc1ccc(CC2=NCCc3cc(OC)c(OC)cc32)cc1Br
inactive: 786-0 5.78 µM | ACHN 12.9 µM | CAKI-1 12.1 µM | LOX IMVI 5.09 µM | Malme-3M 22.8 µM | NCI-H226 4.38 µM | NCI-H23 8.69 µM | NCI-H460 6.19 µM | SF-268 41.7 µM | SK-MEL-5 12.5 µM | SN12C 15.8 µM | SR 11.9 µM | SW-620 7.52 µM | UACC-62 6.67 µM
